Measurements from PMC10477861, “Efficient Mining of Anticancer Peptides from Gut Metagenome” (Advanced Science, 2023).

Tests used:
Details in all cases: 25 µM pACP, 24 h, maintenance medium 1% FBS, ratio of viability to vehicle (PBS), at least three technical repetitions
[1] = system: BT474; assay: MTT primary screening of anticancer activity, BT474; format: cell-based
Excerpt: (§1) We successfully chemically synthesized 40 pACPs for the purpose of in vitro or in vivo characterization of their potential anticancer efficacy. In the initial step, we conducted an in vitro primary screen of these 40 pACPs using a panel of 16 different cancer cell lines, including four human CRC lines (HT29, Caco2, HCT116, and […]), as well as 12 other cancer models (Table S4, Supporting Information). We deliberately selected a diverse panel of cell lines to assess the effect of pACPs across various genetic backgrounds. Briefly, the cancer cells were cultured in specific media (details provided in the Experimental Section) and then treated with pACPs at a final concentration of 25 µM. Peptides with minimum effective inhibition concentrations >25 µM were considered non‐ACPs. After exposure to pACPs, the survival rate of the cancer cells was measured using the MTT assay. Remarkably, 39 out of the 40 pACPs (97.5%) induced at least 20% inhibition in at least one cell line (Figure 3a and Table S5, Supporting Information). […] Thus, our method successfully identified pACPs with a very high rate of anticancer effects across various cancer cell lines.
(§2) To evaluate the activity of the 40 potentially effective pACPs, a panel of 16 cancer cell lines was treated, including human CRC cell lines (HT29, Caco‐2, HCT116). Details of the cell lines used, respective media, and culture conditions were presented in Table S1 (Supporting Information). Once the cells reached 60% confluence, it was incubated with each candidate peptide at a concentration of 25 µM pACPs for 24 h. Concurrently, the complete medium was replaced with a maintenance medium containing only 1% FBS. Subsequently, the viability of each cell line using the MTT Cell Proliferation and Cytotoxicity Assay Kit according to the manufacturer's instructions was assessed. […] For the CRC cell line CT26, it was calculated the CC50 value using two peptides (pACP1780 and pACP2283) with relevant data presented in Table S6 (Supporting Information). The calculation was performed using an online tool: https://www.aatbio.com/tools/ic50‐calculator.

[2] = system: B16; assay: MTT primary screening of anticancer activity, B16; format: cell-based, Mouse
Excerpt: as §1, §2

[3] = system: MDA-MB-453; assay: MTT primary screening of anticancer activity, MDA-MB-453; format: cell-based
Excerpt: as §1, §2

[4] = system: T47D; assay: MTT primary screening of anticancer activity, T47D; format: cell-based
Excerpt: as §1, §2

[5] = system: Caco2; assay: MTT primary screening of anticancer activity, Caco2; format: cell-based, Human
Excerpt: as §1, §2

[6] = system: EFM192A; assay: MTT primary screening of anticancer activity, EFM192A; format: cell-based
Excerpt: as §1, §2

[7] = system: MDA-MB-436; assay: MTT primary screening of anticancer activity, MDA-MB-436; format: cell-based
Excerpt: as §1, §2

[8] = system: HT29; assay: MTT primary screening of anticancer activity, HT29; format: cell-based, Human
Excerpt: as §1, §2

[9] = system: SK-BR-3; assay: MTT primary screening of anticancer activity, SK-BR-3; format: cell-based
Excerpt: as §1, §2

[10] = system: CT26; assay: MTT primary screening of anticancer activity, CT26; format: cell-based, Murine
Excerpt: as §1, §2

[11] = system: LCC; assay: MTT primary screening of anticancer activity, LCC; format: cell-based
Excerpt: as §1, §2

[12] = system: HCT116; assay: MTT primary screening of anticancer activity, HCT116; format: cell-based, Human
Excerpt: as §1, §2

[13] = system: MDA-MB-231; assay: MTT primary screening of anticancer activity, MDA-MB-231; format: cell-based
Excerpt: as §1, §2

[14] = system: Hela; assay: MTT primary screening of anticancer activity, Hela; format: cell-based, Human
Excerpt: as §1, §2

[15] = system: MDA-MB-468; assay: MTT primary screening of anticancer activity, MDA-MB-468; format: cell-based
Excerpt: as §1, §2

[16] = system: MCF7; assay: MTT primary screening of anticancer activity, MCF7; format: cell-based
Excerpt: as §1, §2

Row | Sequence | Survival rate of cancer cells in primary screening [1] | Survival rate of cancer cells in primary screening [2] | Survival rate of cancer cells in primary screening [3] | Survival rate of cancer cells in primary screening [4] | Survival rate of cancer cells in primary screening [5] | Survival rate of cancer cells in primary screening [6] | Survival rate of cancer cells in primary screening [7] | Survival rate of cancer cells in primary screening [8] | Survival rate of cancer cells in primary screening [9] | Survival rate of cancer cells in primary screening [10] | Survival rate of cancer cells in primary screening [11] | Survival rate of cancer cells in primary screening [12] | Survival rate of cancer cells in primary screening [13] | Survival rate of cancer cells in primary screening [14] | Survival rate of cancer cells in primary screening [15] | Survival rate of cancer cells in primary screening [16]
1 | AAGVSIEIHISLTLFTQVKCVARSQCAAEGAGLRHIKVAALQSCSRRRAH [pACP2] | 1.00 | 1.00 | 1.00 | 0.71 | 1.00 | 1.00 | 1.00 | 1.00 | 1.00 | 1.00 | 1.00 | 1.00 | 1.00 | 1.00 | 1.00 | 1.00
2 | CRLCTHGNVSACVLGKNAVFSVSAHNSDCPQPTCDFSSPLEECLESS [pACP177] | 1.00 | 0.73 | 1.00 | 0.59 | 1.00 | 1.00 | 1.00 | 1.00 | 1.00 | 1.00 | 1.00 | 1.00 | 1.00 | 1.00 | 1.00 | 1.00
3 | DRGERVAHGLDLLDGVVAEGVAAKGDDNTIGLAKRLRHCWNPFCKRPTTH [pACP253] | 1.00 | 1.00 | 1.00 | 0.70 | 1.00 | 1.00 | 1.00 | 1.00 | 1.00 | 1.00 | 1.00 | 1.00 | 1.00 | 1.00 | 0.76 | 1.00
4 | DSYGNRTEIERKIWRRYPCGYSCGTGEVKCDKEEWKKEYW [pACP264] | 1.00 | 0.73 | 1.00 | 0.70 | 1.00 | 1.00 | 1.00 | 1.00 | 1.00 | 1.00 | 1.00 | 1.00 | 1.00 | 1.00 | 1.00 | 0.72
5 | ERRVGYSWYGTWGNKVLKKYPEWLRRLTEKK [pACP341] | 0.62 | 0.74 | 1.00 | 1.00 | 1.00 | 1.00 | 1.00 | 1.00 | 1.00 | 0.60 | 1.00 | 1.00 | 1.00 | 1.00 | 0.74 | 0.66
6 | GLTSESVKSRCVKCLLYIKKSGATHDDNALHRTYCRNNCYRL [pACP550] | 1.00 | 0.78 | 1.00 | 1.00 | 1.00 | 1.00 | 1.00 | 1.00 | 1.00 | 1.00 | 1.00 | 1.00 | 1.00 | 1.00 | 1.00 | 1.00
7 | GNPAKQEIKVPGALGKGSCVQSGAGVGPRCRVPCGPLSGGMALFCYE [pACP555] | 1.00 | 0.75 | 1.00 | 0.74 | 1.00 | 1.00 | 1.00 | 1.00 | 1.00 | 1.00 | 1.00 | 1.00 | 1.00 | 1.00 | 1.00 | 1.00
